Laboratory results reported in US8288444B2 (Codman & Shurtleff, Inc., priority 2008, dated 2012).
Read-outs that look alike come from different tables or passages of the source.

Assays:
[1] = cited from earlier work
[2] = carbamazepine peak brain tissue concentration by route (Barakat)
[3] = system: Alzheimer's Transgenic mice; settings: 160 ppm in the diet; Lim 2001; cited from earlier work
[4] = cited from earlier work; remark: listed apart in the source
[5] = system: antigen-stimulated spleen cytotoxic T-lymphocyte proliferation; settings: oral pretreatment with curcumin before MPA administration; mice; cited from earlier work
UGT = settings: Caco-2 cells; cited from earlier work
[6] = system: middle aged female Sprague-Dawley rats; settings: 500 ppm dietary curcumin; Frautschy 2001; cited from earlier work
amyloid beta oligomers = amyloid beta oligomers (Homo sapiens, UniProt P05067); settings: cited from earlier work; for prevention of toxic beta amyloid oligomer formation in vitro: Yang
[7] = system: differentiated neuroblastoma cells; settings: Yang 2005; cited from earlier work
Pgp = settings: freshly-plated and 72 hour-cultured hepatocytes; dose-dependent; cited from earlier work
PC 12 cells, βA (25-35) = test: in vitro protection of PC 12 cells against beta amyloid (25-35) insult; format: cell-based; settings: for potency as neuroprotectant against beta amyloid relative to curcumin: both peptides
Excerpt: Park, J. Nat. Prod., 65, 9 Sep.

[8] = ester prodrug vs parent estradiol
[9] = glycinate ester of the parent named in the row; cited from earlier work

Sequence of amyloid beta oligomers (P05067 672-713 limits assumed): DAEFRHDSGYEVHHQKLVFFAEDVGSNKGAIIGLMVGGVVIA

NC(=O)N1c2ccccc2C=Cc2ccccc21 [Carbamazepine]
Carbamazepine Peak Brain Tissue ([1]; Intranasal, 0.2 mg/kg): 12 µg/g | Carbamazepine Peak Brain Tissue ([1]; Intravenous, 8.0 mg/kg): 4 µg/g | Carbamazepine Peak Brain Tissue ([1]; Oral, 16 mg/kg): 3 µg/g | Carbamazepine Peak Brain Tissue, ~uM ([2]; Intranasal, 0.2 mg/kg): ~48 µM | Carbamazepine Peak Brain Tissue, ~uM ([2]; Intravenous, 8.0 mg/kg): ~16 µM | Carbamazepine Peak Brain Tissue, ~uM ([2]; Oral, 16 mg/kg): ~12 µM

COc1cc(/C=C/C(=O)CC(=O)/C=C/c2ccc(O)c(OC)c2)ccc1O [curcumin, (E,E)-1,7-bis(4-hydroxy-3-methoxyphenyl)-1,6-heptadiene-3,5-dione]
reduction of beta amyloid plaque burden [3]: 30-40% | reduction of the amount of soluble beta amyloid [3]: 43% | solubility in water [4]: insoluble in water | solubility in water (parent compound) [4]: about 0.004 mg/ml | increase in immunosuppression of antigen-stimulated spleen cytotoxic T-lymphocyte proliferation [5]: six-fold increase | inhibition of UGT activity in the conjugation of 1-naphthol (UGT): moderate inhibition | reduction of amyloid beta deposits induced by beta amyloid infusion [6]: about 80% | prevention of toxic beta amyloid oligomer formation in vitro (amyloid beta oligomers; 0.25-4 uM curcumin): only minimally prevent | prevention of toxic beta amyloid oligomer formation in vitro (amyloid beta oligomers; 16-64 uM curcumin): completely prevent | curcumin concentration that inhibits the in vitro formation of amyloid beta oligomers (amyloid beta oligomers; in vitro, Yang 2005): 0.1 to 1.0 µM | curcumin concentration that blocks the in vitro toxicity of Aβ1-42 oligomers [7]: 0.1 to 1.0 µM | Rhodamine-123 (R-123) efflux (Pgp): inhibited

O=C(C=Cc1ccc(O)cc1)CC(=O)CCc1ccc(O)cc1 [compound 34, 1,7-bis(4-hydroxyphenyl)-1-heptene-3,5-dione]
potency as neuroprotectant against beta amyloid relative to curcumin (PC 12 cells, βA (25-35); analysis of the Park data): ~10 fold

O=C(C=Cc1ccc(O)cc1)CC(=O)C=Cc1ccc(O)cc1 [compound 33, 1,7-bis(4-hydroxyphenyl)-1,6-heptadiene-3,5-dione]
potency relative to natural curcumin in surviving toxic insult by β amyloid (PC 12 cells, βA (25-35)): about twice as potent | potency as neuroprotectant against beta amyloid relative to curcumin (PC 12 cells, βA (25-35); analysis of the Kim data): ~2 fold

COc1cc(C=CC(=O)CC(=O)C=Cc2ccc(O)cc2)ccc1O [compound 32, 1-(4-hydroxy-3-methoxyphenyl)-7-(4-hydroxyphenyl)-1,6-heptadiene-3,5-dione]
potency as neuroprotectant against beta amyloid relative to curcumin (PC 12 cells, βA (25-35); analysis of the Kim data): ~1.5 fold

COc1cc(/C=C/C(=O)COC(=O)/C=C/c2ccc(O)c(OC)c2)ccc1O [compound 31, 4″-(3′″-methoxy-4′″-hydroxyphenyl)-2″-oxo-3″-enebutanyl3-(3′-methoxy-4′ hydroxyphenyl) propenoate]
potency as neuroprotectant against beta amyloid relative to curcumin (PC 12 cells, βA (25-35); analysis of the Park data): ~5 fold

CCN(CC)CCC(=O)Oc1ccc2c(c1)CC[C@@H]1[C@@H]2CC[C@]2(C)[C@@H](O)CC[C@@H]12.Cl [3-DEAPE2HCl, 3-N,N-diethylamino propionyl ester hydrochloride]
water solubility of estradiol modified with the moiety ([4]; Al-Ghananeem): about 20 mg/ml | increase in water solubility [8]: > 1000 fold

17β-estradiol
Half-life Of glycinate ester In plasma [9]: 1 to 2 min
